Nine compounds from PubChem BioAssay (NCI) can be followed below.

Structures are written as SMILES.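 Following 48 hours of exposure in 96-well plates, responses at five concentrations were used to interpolate endpoints linearly. Abbreviation: GI50, concentration required for 50% inhibition of growth. TGI marks complete inhibition of growth.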

Among the test systems are NCI-H522 lung; HOP-62 NSCLC; SK-MEL-2 melanoma; NCI-H460 lung; KM12 colon; SNB-19 CNS; A549 NSCLC; TK-10 renal; SK-OV-3 ovarian; CAKI-1 renal.
What all share (assay): inhibition of tumour cell growth, NCI panel, 48 h

As for `CO[C@H](C(=O)[C@@H](O)[C@@H](C)O)[C@@H]1Cc2cc3cc(O[C@H]4C[C@@H](O[C@H]5C[C@@H](O)[C@H](O)C(C)O5)[C@H](O)C(C)O4)c(C)c(O)c3c(O)c2C(=O)[C@H]1O[C@H]1C[C@@H](O[C@H]2C[C@@H](O[C@H]3C[C@](C)(O)C(=O)C(C)O3)[C@@H](O)C(C)O2)[C@H](O)C(C)O1` (stereo partly drawn), the GI50 was 0.0288 µM with NCI-H522 lung; 0.0653 µM in the experiment on HOP-62 NSCLC; 0.059 µM with SK-MEL-2 melanoma; 0.0323 µM in the experiment on NCI-H460 lung; 0.0672 µM in the experiment on KM12 colon; 0.0715 µM in the experiment with SNB-19 CNS. Besides, the GI50 in the experiment on A549 NSCLC was 0.106 µM; in the experiment with TK-10 renal it was 0.21 µM; in the experiment on SK-OV-3 ovarian it was 0.139 µM; in the experiment with CAKI-1 renal, 0.924 µM. Besides, the TGI in the experiment with NCI-H522 lung is 0.285 µM; in the experiment with SK-MEL-2 melanoma it was 0.156 µM; in the experiment with NCI-H460 lung, above 33.2 µM; in the experiment with KM12 colon it was 6.67 µM; in the experiment on SNB-19 CNS, above 33.2 µM; with A549 NSCLC, above 33.2 µM. In addition, the TGI in the experiment with TK-10 renal was above 11.8 µM; in the experiment with SK-OV-3 ovarian, above 33.2 µM; in the experiment on CAKI-1 renal it was above 33.2 µM.

Regarding `COc1ccc2c(c1)/C(=C/c1c(C)nc3sc(C)nn13)C(=O)N2`, the GI50 was 0.574 µM in the experiment with NCI-H522 lung; 4.35 µM in the experiment with HOP-62 NSCLC; 1.29 µM with SK-MEL-2 melanoma; 1.09 µM with NCI-H460 lung; 0.42 µM in the experiment on KM12 colon; 1.94 µM in the experiment with SNB-19 CNS. Moreover, the GI50 in the experiment with A549 NSCLC is 7.74 µM; with TK-10 renal, 7.43 µM; in the experiment with SK-OV-3 ovarian it was 3.62 µM; in the experiment on CAKI-1 renal, 2.31 µM. For the same compound, the TGI was 5.93 µM with NCI-H522 lung; 61.9 µM in the experiment on HOP-62 NSCLC; 4.63 µM in the experiment on SK-MEL-2 melanoma; above 32.6 µM in the experiment with NCI-H460 lung; above 54.6 µM in the experiment with KM12 colon; above 37 µM in the experiment on SNB-19 CNS. Besides, the TGI in the experiment with A549 NSCLC was above 100 µM; in the experiment on TK-10 renal, above 100 µM; in the experiment on SK-OV-3 ovarian, above 27.5 µM; with CAKI-1 renal it was above 100 µM.

Take `Cc1ccc2c(=O)cc(-c3ccc(F)cc3)[nH]c2n1`: the TGI was 84.7 µM in the experiment on NCI-H522 lung; above 100 µM with HOP-62 NSCLC; above 100 µM in the experiment on SK-MEL-2 melanoma; above 100 µM in the experiment with NCI-H460 lung; above 100 µM in the experiment with KM12 colon; above 100 µM in the experiment on SNB-19 CNS. Also, the TGI with A549 NSCLC, in the experiment on TK-10 renal, in the experiment with SK-OV-3 ovarian and in the experiment with CAKI-1 renal was above 100 µM in each case. The GI50 in the experiment on NCI-H460 lung is 33.6 µM.

For `CSc1nc2c(c(=O)[nH]1)N=C1c3ccccc3C(=O)C1C(c1ccccc1)N2` (stereo not drawn), the GI50 was 1.41 µM in the experiment with NCI-H522 lung; 5.37 µM in the experiment with HOP-62 NSCLC; 9.02 µM in the experiment on SK-MEL-2 melanoma; 3.16 µM in the experiment with NCI-H460 lung; 2.27 µM in the experiment with KM12 colon; above 100 µM in the experiment on SNB-19 CNS. The GI50 is 6.98 µM in the experiment on A549 NSCLC, 73.6 µM in the experiment on TK-10 renal, 7.65 µM in the experiment on SK-OV-3 ovarian and 2.18 µM in the experiment on CAKI-1 renal. Also, the TGI in the experiment with NCI-H522 lung was 30.4 µM; with HOP-62 NSCLC it was above 100 µM; in the experiment with SK-MEL-2 melanoma, above 100 µM; in the experiment on NCI-H460 lung it was 38.1 µM; with KM12 colon, 37.5 µM; with SNB-19 CNS it was above 100 µM. Besides, the TGI with A549 NSCLC, in the experiment with TK-10 renal, in the experiment on SK-OV-3 ovarian and in the experiment with CAKI-1 renal was above 100 µM throughout.

`C=C(CN1CCN(c2ccc(Cl)cc2F)CC1)c1ccc(C(=O)Nc2ccccc2N)cc1`: the GI50 in the experiment on NCI-H522 lung was 2.19 µM; with HOP-62 NSCLC it was 3.42 µM; in the experiment on SK-MEL-2 melanoma it was 6.95 µM; with NCI-H460 lung, 3.23 µM; in the experiment on KM12 colon it was 2.26 µM; in the experiment with A549 NSCLC, 2.56 µM. Also, the figures for the GI50 with TK-10 renal and in the experiment on CAKI-1 renal were 3.53 µM and 2.72 µM, respectively. The TGI in the experiment with NCI-H522 lung is 5.95 µM; in the experiment on HOP-62 NSCLC, 27.8 µM; with SK-MEL-2 melanoma, above 100 µM; in the experiment with NCI-H460 lung it was above 100 µM; with KM12 colon, above 59.7 µM; in the experiment on SNB-19 CNS, above 34.3 µM. Besides, the TGI in the experiment on A549 NSCLC is above 30.5 µM; in the experiment with TK-10 renal it was above 100 µM; in the experiment with SK-OV-3 ovarian it was above 25.7 µM; in the experiment on CAKI-1 renal, above 100 µM.

In the case of `CCCCC(=O)OCC(=O)[C@]1(O)Cc2c(O)c3c(c(O)c2[C@@H](OC2CC(NC(=O)C(F)(F)F)C(O)C(C)O2)C1)C(=O)c1c(OC)cccc1C3=O` (stereo partly drawn), the TGI in the experiment on NCI-H522 lung is 3.9 µM; with HOP-62 NSCLC, 0.988 µM; in the experiment with SK-MEL-2 melanoma, 6.01 µM; with NCI-H460 lung it was 2.48 µM; in the experiment with KM12 colon, above 70.8 µM; with SNB-19 CNS, 3.02 µM. For the same compound, the TGI with A549 NSCLC is 3.83 µM; in the experiment with TK-10 renal, 15.1 µM; with SK-OV-3 ovarian, 1.73 µM; in the experiment with CAKI-1 renal it was 2.63 µM.

`C/C(CC(=O)CCC(=O)Nc1cccc(C(F)(F)F)c1)=N\NC(=O)NN`: the TGI in the experiment on NCI-H522 lung, in the experiment on HOP-62 NSCLC, in the experiment with SK-MEL-2 melanoma, with NCI-H460 lung, in the experiment on KM12 colon and in the experiment on SNB-19 CNS was above 100 µM each time. The TGI in the experiment on A549 NSCLC, with TK-10 renal, in the experiment with SK-OV-3 ovarian and in the experiment with CAKI-1 renal was above 100 µM each time.

For the compound `Cc1ccc(NC2=C(Cl)C(=O)N(Cc3ccccc3)C2=O)cc1O`, the GI50 in the experiment on NCI-H522 lung was 41.2 µM; with HOP-62 NSCLC it was 34.8 µM; with SK-MEL-2 melanoma, 7.83 µM; with NCI-H460 lung, 34 µM; in the experiment on KM12 colon, 41.4 µM; in the experiment on SNB-19 CNS, 41.2 µM. Besides, the GI50 is 42.1 µM in the experiment with A549 NSCLC, 31.3 µM with TK-10 renal, 55.2 µM in the experiment with SK-OV-3 ovarian and 28.1 µM in the experiment on CAKI-1 renal. Also, the TGI in the experiment on NCI-H522 lung is above 100 µM; with HOP-62 NSCLC it was above 100 µM; with SK-MEL-2 melanoma it was 54.8 µM; with NCI-H460 lung it was above 100 µM; in the experiment on KM12 colon, above 100 µM; with SNB-19 CNS, above 100 µM. Further, the TGI with A549 NSCLC, with TK-10 renal, in the experiment on SK-OV-3 ovarian and in the experiment on CAKI-1 renal was above 100 µM in each case.

On to `CCN(CCO)CC1CCCC2CCCCC21` (stereo not drawn), for which the TGI in the experiment on NCI-H522 lung, with HOP-62 NSCLC, with SK-MEL-2 melanoma, with NCI-H460 lung, in the experiment with KM12 colon and in the experiment on SNB-19 CNS was above 100 µM throughout. Moreover, the TGI in the experiment with A549 NSCLC, in the experiment with TK-10 renal, in the experiment on SK-OV-3 ovarian and with CAKI-1 renal was above 100 µM throughout.
